Experimental data reported in US4446325A, “1,4-Dihydropyridine compounds” (priority 1981, dated 1984).

What was measured:
[1] = system: enucleated heart of guinea-pig; experiment: Effect on heart systole, enucleated heart of guinea-pig (Langendorf method)
Experimental: (§1) The effects of the compounds of this invention on the heat systole and the perfusion volume in the coronary artery in enucleated heart of guinea-pig were determined in accordance with the Langendorf method.

[2] = system: blood pressure; experiment: Blood pressure measured simultaneously with blood flow in anesthetized dog; format: in vivo; conditions: i.v.
Experimental: (§2) A dog was anesthetized with pentobarital sodium at a dose of 30 mg/kg (intravenous injection) and, under artificial respiration, the blood flow in the coronary, vertebral and femoral arteries was determined using an electromagnetic blood-flow meter. The blood pressure was also measured simultaneously. The test compound was dissolved in ethanol at a concentration of 1% by weight of the compound and then diluted to a volume of 10 times with a 80% aqueous solution of polyethylene glycol 400. The resulting solution was further diluted with a 0.9% physiological saline solution and administered intravenously into the femoral vein at a dose shown in Tables 1 and 2.

[3] = system: coronary artery; experiment: Blood flow increasing activity in coronary artery of anesthetized dog (intravenous); format: in vivo; conditions: i.v.
Experimental: as §2

[4] = background statement; cited from earlier work
[5] = system: vertebral artery; experiment: Blood flow increasing activity in vertebral artery of anesthetized dog (intravenous); format: in vivo; conditions: i.v.
Experimental: as §2

[6] = cited from earlier work
[7] = system: femoral artery; experiment: Blood flow increasing activity in femoral artery of anesthetized dog (intravenous); format: in vivo; conditions: i.v.
Experimental: as §2

[8] = system: coronary artery in enucleated heart of guinea-pig; experiment: Effect on perfusion volume in coronary artery, enucleated heart of guinea-pig (Langendorf method)
Experimental: as §1

[9] = in vivo; conditions: mouse, oral, ddy male mice, mortality one week after administration
[10] = system: coronary, vertebral and femoral arteries; experiment: Blood flow increasing / vasodilating activity in coronary, vertebral and femoral arteries (overall statements); format: in vivo, dog; conditions: Table 2
Experimental: as §2

[11] = Stability to light (sun light, quartz dish, visual appearance); format: physicochemical; set-up: key to Change in appearance on light exposure: (-): No change
[12] = 3 mg/kg, Table 2 (separate test)
[13] = exposure for a total of 8 hours

SMILES | Duration of Activity, Coronary Artery ([3]; 1 mg/kg, Table 1) | Total Increase in Blood Flow, Coronary Artery ([3]; 1 mg/kg, Table 1) [mL] | Duration of Activity, Coronary Artery ([3]; 3 mg/kg, Table 1) | Total Increase in Blood Flow, Coronary Artery ([3]; 3 mg/kg, Table 1) [mL] | Duration of Activity, Coronary Artery [3, 12] | Total Increase in Blood Flow, Coronary Artery [3, 12] [mL] | Duration of Activity, Coronary Artery ([3]; 10 mg/kg, Table 2) | Total Increase in Blood Flow, Coronary Artery ([3]; 10 mg/kg, Table 2) [mL] | Duration of Activity, Vertebral Artery ([5]; 1 mg/kg, Table 1) | Total Increase in Blood Flow, Vertebral Artery ([5]; 1 mg/kg, Table 1) [mL] | Duration of Activity, Vertebral Artery [5, 12] | Total Increase in Blood Flow, Vertebral Artery [5, 12] [mL] | Duration of Activity, Femoral Artery [7, 12] | Total Increase in Blood Flow, Femoral Artery [7, 12] [mL] | LD50 at 168 h [9] [mg/kg] | Change in appearance on light exposure ([11]; 5 min. sun light) | Change in appearance on light exposure ([11]; 1 hour sun light) | Change in appearance on light exposure ([11]; 2 hours sun light) | Change in appearance on light exposure ([11]; 3 hours sun light) | changes on light exposure [11, 13] | other results
COC(=O)C1=C(C)NC(C)=C(C(=O)OC)C1c1ccccc1[N+](=O)[O-] [Compound H, Dimethyl 2,6-dimethyl-4-(2-nitrophenyl)-1,4-dihydropyridine-3,5-dicarboxylate, reference compound] | 3.9 | 30 | 9.3 | 107 | 11 | 146 | 40 | 536 | 8.0 | 66 | 15 | 131 | 12 | 119 |  |  |  |  |  |  | Effects on Heart Systole: Duration of Effect ([1]; dose 1 × 10^-6 g): 14.5 min; Effects on Heart Systole: Duration of Effect ([1]; dose 1 × 10^-7 g): 2.9 min; blood pressure lowering activity [2]: found to have a blood pressure lowering activity; side-effects [4]: still unsatisfactory; Duration of Activity, Vertebral Artery ([5]; 3 mg/kg, Table 1): 16.0; Total Increase in Blood Flow, Vertebral Artery ([5]; 3 mg/kg, Table 1): 190 mL; Duration of Activity, Vertebral Artery ([5]; 10 mg/kg, Table 2): 46; Total Increase in Blood Flow, Vertebral Artery ([5]; 10 mg/kg, Table 2): 640 mL; duration of vasodilating activity ([6]; background statement): still unsatisfactory; Duration of Activity, Femoral Artery ([7]; 1 mg/kg, Table 1): 6.0; Total Increase in Blood Flow, Femoral Artery ([7]; 1 mg/kg, Table 1): 34 mL; Duration of Activity, Femoral Artery ([7]; 3 mg/kg, Table 1): 21.5; Total Increase in Blood Flow, Femoral Artery ([7]; 3 mg/kg, Table 1): 618 mL; Duration of Activity, Femoral Artery ([7]; 10 mg/kg, Table 2): 54; Total Increase in Blood Flow, Femoral Artery ([7]; 10 mg/kg, Table 2): 825 mL; Effects on Coronary Artery: Duration of Effect ([8]; dose 1 × 10^-6 g): 21.3 min; Effects on Coronary Artery: Total Perfusion Volume ([8]; dose 1 × 10^-6 g): 192.8 drops; Effects on Coronary Artery: Duration of Effect ([8]; dose 1 × 10^-7 g): 17.2 min; Effects on Coronary Artery: Total Perfusion Volume ([8]; dose 1 × 10^-7 g): 91.2 drops
COC(=O)C1=C(C)NC(C)=C(C(=O)OCC2CC2)C1c1cccc([N+](=O)[O-])c1 (stereo not drawn) [Compound C, Cyclopropylmethyl methyl 2,6-dimethyl-4-(3-nitrophenyl)-1,4-dihydropyridine-3,5-dicarboxylate] |  |  |  |  | 49 | 580 | 66 | 2772 |  |  | 37 | 463 | 26 | 367 | 1450 | (-) | (-) | (-) | (-) | did not show any changes | Duration of Activity, Vertebral Artery ([5]; 10 mg/kg, Table 2): 78; Total Increase in Blood Flow, Vertebral Artery ([5]; 10 mg/kg, Table 2): 1691 mL; duration of vasodilation effect compared with Compound F [10]: significantly higher; vasodilation effect compared with Compound F [10]: significantly higher; Duration of Activity, Femoral Artery ([7]; 10 mg/kg, Table 2): 60; Total Increase in Blood Flow, Femoral Artery ([7]; 10 mg/kg, Table 2): 811 mL; Change in appearance on light exposure ([11]; 8 hours sun light): (-)
COC(=O)C1=C(C)NC(C)=C(C(=O)OCC(C)=O)C1c1ccccc1[N+](=O)[O-] (stereo not drawn) [Compound B, Methyl 2-oxopropyl 2,6-dimethyl-4-(2-nitrophenyl)-1,4-dihydropyridine-3,5-dicarboxylate] | 10.0 | 37 | 35.0 | 392 |  |  |  |  | 7.5 | 29 |  |  |  |  |  |  |  |  |  |  | Duration of Activity, Vertebral Artery ([5]; 3 mg/kg, Table 1): 35.5; Total Increase in Blood Flow, Vertebral Artery ([5]; 3 mg/kg, Table 1): 309 mL; Duration of Activity, Femoral Artery ([7]; 1 mg/kg, Table 1): 4.0; Total Increase in Blood Flow, Femoral Artery ([7]; 1 mg/kg, Table 1): 20 mL; Duration of Activity, Femoral Artery ([7]; 3 mg/kg, Table 1): 58.5; Total Increase in Blood Flow, Femoral Artery ([7]; 3 mg/kg, Table 1): 774 mL
CCCOC(=O)C1=C(C)NC(C)=C(C(=O)OCC2CC2)C1c1cccc([N+](=O)[O-])c1 (stereo not drawn) [Compound E, Cyclopropylmethyl propyl 2,6-dimethyl-4-(3-nitrophenyl)-1,4-dihydropyridine-3,5-dicarboxylate] |  |  |  |  | 22 | 148 |  |  |  |  | 19 | 262 | 20 | 285 | 2000 | (-) | (-) | (-) | (-) | did not show any changes | Change in appearance on light exposure ([11]; 8 hours sun light): (-)
CCOC(=O)C1=C(C)NC(C)=C(C(=O)OCC2CC2)C1c1cccc([N+](=O)[O-])c1 (stereo not drawn) [Compound D, Cyclopropylmethyl ethyl 2,6-dimethyl-4-(3-nitrophenyl)-1,4-dihydropyridine-3,5-dicarboxylate] |  |  |  |  | 32 | 308 |  |  |  |  | 17 | 212 | 16 | 173 | 2000 | (-) | (-) | (-) | (-) | did not show any changes | Change in appearance on light exposure ([11]; 8 hours sun light): (-)
COC(=O)C1=C(C)NC(C)=C(C(=O)OCC2(C)OCCO2)C1c1cccc([N+](=O)[O-])c1 (stereo not drawn) [Compound A, Methyl 2,2-ethylenedioxypropyl 2,6-dimethyl-4-(3-nitrophenyl)-1,4-dihydropyridine-3,5-dicarboxylate] | 5.5 | 22 | 17.5 | 164 |  |  |  |  | 11.7 | 64 |  |  |  |  |  | (-) | (-) | (-) | (-) | did not show any changes | Effects on Heart Systole: Duration of Effect ([1]; dose 1 × 10^-6 g): 4.6 min; Effects on Heart Systole: Duration of Effect ([1]; dose 1 × 10^-7 g): 1.3 min; Duration of Activity, Vertebral Artery ([5]; 3 mg/kg, Table 1): 27.3; Total Increase in Blood Flow, Vertebral Artery ([5]; 3 mg/kg, Table 1): 288 mL; Duration of Activity, Femoral Artery ([7]; 1 mg/kg, Table 1): 9.0; Total Increase in Blood Flow, Femoral Artery ([7]; 1 mg/kg, Table 1): 104 mL; Duration of Activity, Femoral Artery ([7]; 3 mg/kg, Table 1): 19.3; Total Increase in Blood Flow, Femoral Artery ([7]; 3 mg/kg, Table 1): 316 mL; Effects on Coronary Artery: Duration of Effect ([8]; dose 1 × 10^-6 g): 34.6 min; Effects on Coronary Artery: Total Perfusion Volume ([8]; dose 1 × 10^-6 g): 737.8 drops; Effects on Coronary Artery: Duration of Effect ([8]; dose 1 × 10^-7 g): 15.6 min; Effects on Coronary Artery: Total Perfusion Volume ([8]; dose 1 × 10^-7 g): 165.0 drops
COC(=O)C1=C(C)NC(C)=C(C(=O)OCC(C)C)C1c1ccccc1[N+](=O)[O-] (stereo not drawn) [Compound F, Isobutyl methyl 2,6-dimethyl-4-(2-nitrophenyl)-1,4-dicarboxylate, reference compound] |  |  |  |  | 31 | 353 | 55 | 863 |  |  | 34 | 347 | 27 | 365 | 465 |  |  |  |  |  | Duration of Activity, Femoral Artery ([7]; 10 mg/kg, Table 2): 58; Total Increase in Blood Flow, Femoral Artery ([7]; 10 mg/kg, Table 2): 874 mL; color changes on light exposure ([11]; 5 minutes' exposure): slight color changes; changes on light exposure ([11]; after more than 5 minutes' exposure ("thereafter")): marked changes
CCOC(=O)C1=C(C)NC(C)=C(C(=O)OC2CCCCC2)C1c1cccc([N+](=O)[O-])c1 (stereo not drawn) [cyclohexyl ethyl 2,6-dimethyl-4-(3-nitrophenyl)-1,4-dihydropyridine-3,5-dicarboxylate] |  |  |  |  |  |  |  |  |  |  |  |  |  |  |  |  |  |  |  |  | activities, reported ([6]; German OLS Nos. 2,117,571 and 2,117,573): weak activities
